Legend:
Assay in all cases: relative viability (nuclei count vs DMSO), 5 days (fraction); higher = more cells survive
Apatinib + Vorinostat = compound: N#CC1(c2ccc(NC(=O)c3cccnc3NCc3ccncc3)cc2)CCCC1 [Apatinib] + O=C(CCCCCCC(=O)Nc1ccccc1)NO [Vorinostat] (partner 1 µM)
In short: (§1)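 Values are medians from duplicate plates. Each reflects relative viability, defined as the nuclei count of treated wells over that of vehicle wells. Lung cancer cell lines in 1536-well plates were pin-tool dosed one day after seeding with one drug alone or with a fixed anchor-drug dose plus five library-drug doses (not always all listed) in √10 steps, then fixed, stained and imaged at 4× after 5 days.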

Apatinib + Decitabine = compound: N#CC1(c2ccc(NC(=O)c3cccnc3NCc3ccncc3)cc2)CCCC1 [Apatinib] + Nc1ncn([C@H]2C[C@H](O)[C@@H](CO)O2)c(=O)n1 [Decitabine] (partner 2 µM)
In short: as §1

Metformin + Vorinostat = compound: CN(C)C(=N)NC(=N)N [Metformin] + O=C(CCCCCCC(=O)Nc1ccccc1)NO [Vorinostat] (partner 1 µM)
In short: as §1

Apatinib + Dasatinib = compound: N#CC1(c2ccc(NC(=O)c3cccnc3NCc3ccncc3)cc2)CCCC1 [Apatinib] + Cc1nc(Nc2ncc(C(=O)Nc3c(C)cccc3Cl)s2)cc(N2CCN(CCO)CC2)n1 [Dasatinib] (partner 0.075 µM)
In short: as §1

Cell Line	relative viability (Apatinib + Vorinostat; first compound 0.08 µM)	relative viability (Apatinib + Vorinostat; first compound 0.253 µM)	relative viability (Apatinib + Vorinostat; first compound 0.8 µM)	relative viability (Apatinib + Vorinostat; first compound 2.53 µM)	relative viability (Apatinib + Vorinostat; first compound 8 µM)	relative viability (Apatinib + Decitabine; first compound 0.08 µM)	relative viability (Apatinib + Decitabine; first compound 0.253 µM)	relative viability (Apatinib + Decitabine; first compound 0.8 µM)	relative viability (Apatinib + Decitabine; first compound 2.53 µM)	relative viability (Apatinib + Decitabine; first compound 8 µM)	relative viability (Metformin + Vorinostat; first compound 10 µM)	relative viability (Metformin + Vorinostat; first compound 31.62 µM)	relative viability (Metformin + Vorinostat; first compound 100 µM)	relative viability (Metformin + Vorinostat; first compound 316.23 µM)	relative viability (Metformin + Vorinostat; first compound 1000 µM)	relative viability (Apatinib + Dasatinib; first compound 0.08 µM)	relative viability (Apatinib + Dasatinib; first compound 0.253 µM)	relative viability (Apatinib + Dasatinib; first compound 0.8 µM)	relative viability (Apatinib + Dasatinib; first compound 2.53 µM)	relative viability (Apatinib + Dasatinib; first compound 8 µM)
NCI-H838	0.778	0.784	0.702	0.652	0.722	0.489	0.48	0.493	0.442	0.469	0.645	0.586	0.675	0.569	0.654	0.353	0.303	0.272	0.328	0.268
NCI-H1755	0.846	0.7	0.783	0.705	0.586	0.712	0.701	0.644	0.91	0.837	0.579	0.629	0.711	0.657	0.763	0.524	0.484	0.451	0.394	0.399
NCI-H522	1.02	1.02	0.875	0.672	0.816	0.685	0.63	0.749	0.606	0.672	1.15	1.11	0.923	0.99	1.03	0.872	0.882	0.884	0.892	0.782
NCI-H1734	0.935	0.947	0.773	0.727	0.728	0.532	0.549	0.482	0.563	0.623	0.753	0.907	0.81	0.78	0.914	0.547	0.521	0.439	0.424	0.399
NCI-H2009	0.701	0.776	0.669	0.627	0.48	0.367	0.411	0.35	0.508	0.581	0.715	0.706	0.857	0.83	0.75	0.374	0.326	0.31	0.195	0.179
SW 1573	0.993	1.07	0.702	0.47	0.446	0.77	0.615	0.593	0.513	0.603	0.724	0.722	0.68	0.701	0.755	0.454	0.624	0.393	0.351	0.458
HARA	0.599	0.556	0.523	–	0.51	0.676	0.538	0.438	–	0.671	0.419	0.587	0.39	0.382	0.445	0.373	0.242	0.209	0.213	0.248
PC-3 [JPC-3]	–	0.756	0.733	0.533	0.799	–	0.869	0.763	0.908	1.04	0.737	0.664	–	0.85	0.554	0.988	0.943	0.88	0.83	0.879
NCI-H1666	1.03	1.03	1.05	0.976	0.915	0.756	0.727	0.692	0.737	0.612	0.979	0.946	1.01	1.06	1.1	0.931	0.803	0.796	0.703	0.713
NCI-H520	0.77	0.736	0.708	0.672	0.452	0.544	0.476	0.559	0.5	0.486	0.748	0.757	0.84	0.714	0.763	0.228	0.205	0.176	0.203	0.203
NCI-H2023	0.774	0.673	0.811	0.58	0.483	0.233	0.261	0.269	0.307	0.472	0.292	0.712	0.354	0.496	0.38	0.566	0.639	0.536	0.392	0.358
LXF-289	0.813	0.746	0.765	0.637	0.671	0.4	0.386	0.391	0.565	0.594	0.65	0.661	0.712	0.66	0.729	0.234	0.253	0.232	0.177	0.182
EPLC-272H	0.532	0.372	0.396	0.346	0.256	0.395	0.324	0.405	0.307	0.342	0.529	0.352	0.383	0.4	0.579	0.382	–	0.358	0.355	0.335
NCI-H2087	0.768	0.591	0.747	0.579	0.688	0.272	0.285	0.331	0.239	0.236	0.595	0.657	0.637	0.567	0.671	0.929	0.747	0.763	0.685	0.524
NCI-H647	0.596	0.868	0.473	0.669	0.343	0.376	0.413	0.478	0.414	0.583	0.705	0.5	0.64	0.56	0.588	0.506	0.253	0.175	0.169	0.152
NCI-H661	0.814	0.75	0.739	0.722	0.716	0.615	0.543	0.542	0.581	0.599	0.851	0.928	0.927	0.818	0.82	1.12	0.957	0.803	0.702	0.708

— the supplement of paper PMC10307832
